Results taken from patent US9206132B2, “Use of a novel aminopyridine derivative to prevent or treat cancer” (Medicinal Bioconvergence Research Center, priority 2012, dated 2015).

Experiments:
[1] = tested on: AIMP2-DX2; test: AIMP2-DX2 luciferase assay in pGL-DX-2 transfected A549 lung cancer cells; conditions: A549 transfected with pGL-DX-2, cultured 24 hours, 4 hours treatment, lower = more inhibition, N.C (DMSO) 20089
Procedure: (§1) After 24 hours in culture, transfected lung cancer cells were treated with the compounds of the library. 4 hours later, luciferase activity was measured with a luminometer using a luciferase assay kit according to a manufacturer protocol (Promega, US).
(§2) Lung cancer cell lines A549 and H460 were transfected with pGL-DX-2, cultured for 24 hours, and treated with the newly synthesized compounds. After further culturing for 4 hours, luciferase activity was measured.

[2] = tested on: AIMP2-DX2; test: AIMP2-DX2 luciferase assay in pGL2-DX2 transfected H460 lung cancer cells; conditions: H460 transfected with pGL-DX-2, cultured 24 hours, 4 hours treatment, lower = more inhibition, N.C (DMSO) 8627
Procedure: as §1, §2

Row | Compound | AIMP2-DX2 Activity in A549 cells [1] | AIMP2-DX2 Activity in H460 cells [2]
1 | CCOC(=O)CC(=O)Nc1nc(C)ccc1C [No. 4, ethyl 3-[(3,6-dimethylpyridin-2-yl)amino]-3-oxopropanoate] | 18252 | 4914
2 | CCOC(=O)CC(=O)Nc1cnc2ccccc2c1 [No. 3, ethyl 3-oxo-3-(quinolin-3-ylamino)propanoate] | 17967 | 5447
3 | CCOC(=O)CC(=O)Nc1cc(O)ccn1 [No. 5, ethyl 3-[(4-hydroxypyridin-2-yl)amino]-3-oxopropanoate] | 5721 | 4984
4 | CCOC(=O)C(C)C(=O)Nc1ccc(Cl)cn1 (stereo not shown) [No. 1, ethyl 3-[(5-chloropyridin-2-yl)amino]-2-methyl-3-oxopropanoate] | 5295 | 7668
5 | CCOC(=O)CC(=O)Nc1cccc(C)n1 [No. 2, ethyl 3-[(6-methylpyridin-2-yl)amino]-3-oxopropanoate] | 8070 | 7740
6 | CCOC(=O)CC(=O)Nc1ccc(Cl)cn1 [No. 8, ethyl 3-[(5-chloropyridin-2-yl)amino]-3-oxopropanoate] | 8045 | 6348
7 | CCOC(=O)C(C)C(=O)Nc1cnc2ccccc2c1 (stereo not shown) [No. 6, ethyl 2-methyl-3-oxo-3-(quinolin-3-ylamino)propanoate] | 6011 | 5083
8 | CCOC(=O)C(C)C(=O)Nc1cccc(C)n1 (stereo not shown) [No. 7, ethyl 2-methyl-3-[(6-methylpyridin-2-yl)amino]-3-oxopropanoate] | 6568 | 6082
